From ChEMBL document CHEMBL1127904, “D-amino acids as novel P2/P3 ligands for inhibitors of HIV-1 protease” (Bioorg Med Chem Lett, 1994)

Legend:
[1] = target: Human immunodeficiency virus type 1 protease (Human immunodeficiency virus 1, UniProt Q72874); assay: Concentration required for in vitro inhibitory activity against HIV-1 protease
CCRF-CEM = assay: Concentration required for in vitro antiviral activity against HIV-1 virus infected CEM cells; format: functional, cell-based; conditions: Homo sapiens
MT2 = assay: Concentration required for in vitro antiviral activity against HIV-1 virus infected MT2 cells; format: functional, cell-based; conditions: Homo sapiens

| Structure (SMILES) | IC50 [1] [nM] | IC50 (CCRF-CEM) [nM] | IC50 (MT2) [nM] |
| --- | --- | --- | --- |
| CC(=O)N[C@@H](CC(=O)OCc1ccccc1)C(=O)N[C@@H](Cc1ccccc1)[C@H](O)Cc1ccccc1C(=O)NC(C)(C)C | 85 |  |  |
| CC(=O)N[C@@H](CSCc1ccccc1)C(=O)N[C@@H](Cc1ccccc1)[C@H](O)Cc1ccccc1C(=O)NC(C)(C)C | 45 | 2910 | 3120 |
| CC(=O)N[C@H](CC(=O)OCc1ccccc1)C(=O)N[C@@H](Cc1ccccc1)[C@H](O)Cc1ccccc1C(=O)NC(C)(C)C | > 1000 |  |  |
| CC(C)(C)NC(=O)c1ccccc1C[C@@H](O)[C@H](Cc1ccccc1)NC(=O)[C@H](CC(=O)NCc1ccc2ccccc2n1)NS(C)(=O)=O | 8 | 580 | 1440 |
| CC(C)(C)NC(=O)c1ccccc1C[C@@H](O)[C@H](Cc1ccccc1)NC(=O)[C@H](CC(=O)OCc1ccccc1)NC(N)=O | 51 | 22400 | 11900 |
| CC(=O)N[C@@H](CS(=O)(=O)c1ccc2ccccc2n1)C(=O)N[C@@H](Cc1ccccc1)[C@H](O)Cc1ccccc1C(=O)NC(C)(C)C | 0.3 | 53 | 180 |
| CC(=O)N[C@H](CSCc1ccccc1)C(=O)N[C@@H](Cc1ccccc1)[C@H](O)Cc1ccccc1C(=O)NC(C)(C)C | > 1000 |  |  |
| CC(C)(C)NC(=O)c1ccccc1C[C@@H](O)[C@H](Cc1ccccc1)NC(=O)C(CC(N)=O)NC(=O)c1ccc2ccccc2n1 (single isomer, unassigned) |  | 23 |  |
| CC(=O)N[C@H](CS(=O)(=O)c1ccc2ccccc2c1)C(=O)N[C@@H](Cc1ccccc1)[C@H](O)Cc1ccccc1C(=O)NC(C)(C)C | 0.3 | 11 | 31 |
| CC(C)(C)NC(=O)c1ccccc1C[C@@H](O)[C@H](Cc1ccccc1)NC(=O)[C@H](CC(=O)OCc1ccccc1)NS(C)(=O)=O | 5.4 | 1090 | 1270 |
| CC(C)(C)NC(=O)c1ccccc1C[C@@H](O)[C@H](Cc1ccccc1)NC(=O)[C@@H](CC(=O)OCc1ccccc1)NS(C)(=O)=O | > 1000 |  |  |
| CC(=O)N[C@@H](CSc1ccc2ccccc2c1)C(=O)N[C@@H](Cc1ccccc1)[C@H](O)Cc1ccccc1C(=O)NC(C)(C)C | 42 | 1130 | 1000 |
